Measurements reported in patent US12077503B2, “Substituted cyclic amides and their use as herbicides” (FMC CORPORATION, priority 2015, dated 2024).
Where two headings read alike, the source gives them in different places.

How the values were obtained:
Format in all cases: in vivo
[1] = test system: Kochia (Kochia scoparia); assay: Test A preemergence; settings: Bassia scoparia, pre-emergence, 240 h; for pest or weed control at 125 g/ha: 125 g ai/ha; for pest or weed control at 500 g/ha: 500 g ai/ha
In short: (§1)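 Preemergence soil spray on seeded pots or post-emergence spray on 1–2 leaf plants, in loam–sand blend. Greenhouse ~10 d. Visual rating 0–100 against untreated plants.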

[2] = test system: barnyardgrass (Echinochloa crus-galli); assay: Test A preemergence; settings: Echinochloa crus-galli, pre-emergence, 240 h; for pest or weed control at 125 g/ha: 125 g ai/ha; for pest or weed control at 500 g/ha: 500 g ai/ha
In short: as §1

[3] = test system: giant foxtail (Setaria faberii); assay: Test A preemergence; settings: Setaria faberi, pre-emergence, 240 h; for pest or weed control at 125 g/ha: 125 g ai/ha; for pest or weed control at 500 g/ha: 500 g ai/ha
In short: as §1

[4] = test system: pigweed (Amaranthus retroflexus); assay: Test A preemergence; settings: Amaranthus retroflexus, pre-emergence, 240 h; for pest or weed control at 125 g/ha: 125 g ai/ha; for pest or weed control at 500 g/ha: 500 g ai/ha
[5] = test system: ragweed (common ragweed, Ambrosia elatior); assay: Test A preemergence; settings: Ambrosia artemisiifolia, pre-emergence, 240 h; for pest or weed control at 125 g/ha: 125 g ai/ha; for pest or weed control at 500 g/ha: 500 g ai/ha
In short: as §1

[6] = test system: ryegrass, Italian (Italian ryegrass, Lolium multiflorum); assay: Test A preemergence; settings: Lolium multiflorum, pre-emergence, 240 h; for pest or weed control at 125 g/ha: 125 g ai/ha; for pest or weed control at 500 g/ha: 500 g ai/ha
In short: as §1

[7] = test system: blackgrass (Alopecurus myosuroides); assay: Test A postemergence; settings: Alopecurus myosuroides, post-emergence, 240 h, postemergence; for pest or weed control at 125 g/ha: 125 g ai/ha
In short: as §1

[8] = test system: giant foxtail (Setaria faberii); assay: Test A postemergence; settings: Setaria faberi, post-emergence, 240 h, postemergence; for pest or weed control at 125 g/ha: 125 g ai/ha
In short: as §1

[9] = test system: pigweed (Amaranthus retroflexus); assay: Test A postemergence; settings: Amaranthus retroflexus, post-emergence, 240 h, postemergence; for pest or weed control at 125 g/ha: 125 g ai/ha
In short: as §1

[10] = test system: ryegrass, Italian (Italian ryegrass, Lolium multiflorum); assay: Test A postemergence; settings: Lolium multiflorum, post-emergence, 240 h, postemergence; for pest or weed control at 125 g/ha: 125 g ai/ha
In short: as §1

[11] = test system: wheat (Triticum aestivum); assay: Test A postemergence; settings: Triticum aestivum, post-emergence, 240 h, 125 g ai/ha, postemergence
In short: as §1

[12] = test system: barnyardgrass (Echinochloa crus-galli); assay: Test B flooded paddy test; settings: Echinochloa crus-galli, Flood, 250 g ai/ha, read-out: Barnyardgrass plant response rating
In short: (§2)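 Compound goes directly into floodwater once pots are flooded 3 cm above soil, targeting plants at two leaves; the water depth is then held for the test duration. Plants sit 13–15 d in a greenhouse and are rated visually, 100 denoting complete control.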

[13] = test system: ducksalad (Heteranthera limosa); assay: Test B flooded paddy test; settings: Heteranthera limosa, Flood, 250 g ai/ha, read-out: Ducksalad plant response rating
In short: as §2

[14] = test system: rice (Oryra sativa); assay: Test B flooded paddy test; settings: Oryza sativa, Flood, 250 g ai/ha, read-out: Rice plant response rating
In short: as §2

[15] = test system: sedge, umbrella (small-flower umbrella sedge, Cyperus difformis); assay: Test B flooded paddy test; settings: Cyperus difformis, Flood, 250 g ai/ha, read-out: Sedge, Umbrella plant response rating
In short: as §2

[16] = scale of 0 to 100 where 0 is no effect and 100 is complete control
[17] = 0 to 100 scale where 0 is no effect and 100 is complete control

CC(F)(F)c1cccc([C@H]2CNC(=O)[C@@H]2C(=O)Nc2ccccc2F)c1 [Compound 782] showed a pest or weed control at 125 g/ha ([1]; preemergence, visual rating after approx. 10 d, 0 to 100 scale where 0 is no effect and 100 is complete control, read-out: Plant response rating, Kochia) of 80%, a pest or weed control at 500 g/ha ([1]; Preemergence, visual injury vs untreated controls after approximately 10 d, read-out: Kochia plant response rating (0 to 100 scale where 0 is no effect and 100 is complete control)) of 90% and a pest or weed control at 125 g/ha ([2]; preemergence, visual rating after approx. 10 d, 0 to 100 scale where 0 is no effect and 100 is complete control, read-out: Plant response rating, Barnyardgrass) of 80%. It also gave a pest or weed control at 500 g/ha ([2]; Preemergence, visual injury vs untreated controls after approximately 10 d, read-out: Barnyardgrass plant response rating (0 to 100 scale where 0 is no effect and 100 is complete control)) of 90%, a pest or weed control at 125 g/ha ([3]; preemergence, visual rating after approx. 10 d, 0 to 100 scale where 0 is no effect and 100 is complete control, read-out: Plant response rating, Foxtail, Giant) of 90% and a pest or weed control at 500 g/ha ([3]; Preemergence, visual injury vs untreated controls after approximately 10 d, read-out: Foxtail, Giant plant response rating (0 to 100 scale where 0 is no effect and 100 is complete control)) of 100%. The pest or weed control at 125 g/ha ([4]; preemergence, visual rating after approx. 10 d, 0 to 100 scale where 0 is no effect and 100 is complete control, read-out: Plant response rating, Pigweed) was 0%, the pest or weed control at 500 g/ha ([4]; Preemergence, visual injury vs untreated controls after approximately 10 d, read-out: Pigweed plant response rating (0 to 100 scale where 0 is no effect and 100 is complete control)) was 50% and the pest or weed control at 125 g/ha ([5]; preemergence, visual rating after approx. 10 d, 0 to 100 scale where 0 is no effect and 100 is complete control, read-out: Plant response rating, Ragweed) was 0%. The pest or weed control at 500 g/ha ([5]; Preemergence, visual injury vs untreated controls after approximately 10 d, read-out: Ragweed plant response rating (0 to 100 scale where 0 is no effect and 100 is complete control)) was 20%, the pest or weed control at 125 g/ha ([6]; preemergence, visual rating after approx. 10 d, 0 to 100 scale where 0 is no effect and 100 is complete control, read-out: Plant response rating, Ryegrass, Italian) was 40% and the pest or weed control at 500 g/ha ([6]; Preemergence, visual injury vs untreated controls after approximately 10 d, read-out: Ryegrass, Italian plant response rating (0 to 100 scale where 0 is no effect and 100 is complete control)) was 60%. The pest or weed control at 125 g/ha ([7]; visual injury after approximately 10 d, 0 to 100 scale (0 no effect, 100 complete control), read-out: Plant response rating, Blackgrass) was 70%, the pest or weed control at 125 g/ha ([8]; visual injury after approximately 10 d, 0 to 100 scale (0 no effect, 100 complete control), read-out: Plant response rating, Foxtail, Giant) was 90% and the pest or weed control at 125 g/ha ([9]; visual injury after approximately 10 d, 0 to 100 scale (0 no effect, 100 complete control), read-out: Plant response rating, Pigweed) was 0%. It also gave a pest or weed control at 125 g/ha ([10]; visual injury after approximately 10 d, 0 to 100 scale (0 no effect, 100 complete control), read-out: Plant response rating, Ryegrass, Italian) of 40%, a plant injury at 125 g/ha ([11]; visual injury after approximately 10 d, 0 to 100 scale (0 no effect, 100 complete control), read-out: Plant response rating, Wheat) of 60% and a pest or weed control at 250 g/ha [12, 16] of 65%. The pest or weed control at 250 g/ha [13, 16] was 100%, the pest or weed control at 250 g/ha [14, 16] was 0% and the pest or weed control at 250 g/ha [15, 16] was 0%.

Cc1cccc([C@H]2CN(C)C(=O)[C@@H]2C(=O)Nc2ccc(F)c(F)c2F)c1 [Compound 1231] was tested, and the pest or weed control at 125 g/ha ([1]; preemergence, visual injury rating, 0 to 100 scale where 0 is no effect and 100 is complete control, approximately 10 d, read-out: Kochia plant response rating) was 70%, the pest or weed control at 500 g/ha ([1]; preemergence, 0 to 100 scale where 0 is no effect and 100 is complete control, read-out: Kochia plant response rating) was 90% and the pest or weed control at 125 g/ha ([2]; preemergence, visual injury rating, 0 to 100 scale where 0 is no effect and 100 is complete control, approximately 10 d, read-out: Barnyardgrass plant response rating) was 90%. The pest or weed control at 500 g/ha ([2]; preemergence, 0 to 100 scale where 0 is no effect and 100 is complete control, read-out: Barnyardgrass plant response rating) was 90%, the pest or weed control at 125 g/ha ([3]; preemergence, visual injury rating, 0 to 100 scale where 0 is no effect and 100 is complete control, approximately 10 d, read-out: Foxtail, Giant plant response rating) was 90% and the pest or weed control at 500 g/ha ([3]; preemergence, 0 to 100 scale where 0 is no effect and 100 is complete control, read-out: Foxtail, Giant plant response rating) was 90%. For the same molecule, the pest or weed control at 125 g/ha ([4]; preemergence, visual injury rating, 0 to 100 scale where 0 is no effect and 100 is complete control, approximately 10 d, read-out: Pigweed plant response rating) was 40%, the pest or weed control at 500 g/ha ([4]; preemergence, 0 to 100 scale where 0 is no effect and 100 is complete control, read-out: Pigweed plant response rating) was 70% and the pest or weed control at 125 g/ha ([5]; preemergence, visual injury rating, 0 to 100 scale where 0 is no effect and 100 is complete control, approximately 10 d, read-out: Ragweed plant response rating) was 30%. The pest or weed control at 500 g/ha ([5]; preemergence, 0 to 100 scale where 0 is no effect and 100 is complete control, read-out: Ragweed plant response rating) was 60%, the pest or weed control at 125 g/ha ([6]; preemergence, visual injury rating, 0 to 100 scale where 0 is no effect and 100 is complete control, approximately 10 d, read-out: Ryegrass, Italian plant response rating) was 40% and the pest or weed control at 500 g/ha ([6]; preemergence, 0 to 100 scale where 0 is no effect and 100 is complete control, read-out: Ryegrass, Italian plant response rating) was 90%. For the same molecule, the pest or weed control at 125 g/ha ([7]; visual injury vs untreated controls after approx. 10 d, 0 = no effect, 100 = complete control, read-out: Blackgrass plant response rating (0 to 100 scale)) was 0%, the pest or weed control at 500 g/ha ([7]; 500 g ai/ha, 0 to 100 scale, 0 is no effect, 100 is complete control, read-out: Blackgrass plant response rating) was 40% and the pest or weed control at 125 g/ha ([8]; visual injury vs untreated controls after approx. 10 d, 0 = no effect, 100 = complete control, read-out: Foxtail, Giant plant response rating (0 to 100 scale)) was 80%. For the same molecule, the pest or weed control at 500 g/ha ([8]; 500 g ai/ha, 0 to 100 scale, 0 is no effect, 100 is complete control, read-out: Foxtail, Giant plant response rating) was 90%, the pest or weed control at 125 g/ha ([9]; visual injury vs untreated controls after approx. 10 d, 0 = no effect, 100 = complete control, read-out: Pigweed plant response rating (0 to 100 scale)) was 0% and the pest or weed control at 500 g/ha ([9]; 500 g ai/ha, 0 to 100 scale, 0 is no effect, 100 is complete control, read-out: Pigweed plant response rating) was 50%. The pest or weed control at 125 g/ha ([10]; visual injury vs untreated controls after approx. 10 d, 0 = no effect, 100 = complete control, read-out: Ryegrass, Italian plant response rating (0 to 100 scale)) was 40%, the pest or weed control at 500 g/ha ([10]; 500 g ai/ha, 0 to 100 scale, 0 is no effect, 100 is complete control, read-out: Ryegrass, Italian plant response rating) was 50% and the plant injury at 125 g/ha ([11]; visual injury vs untreated controls after approx. 10 d, 0 = no effect, 100 = complete control, read-out: Wheat plant response rating (0 to 100 scale)) was 50%. The pest or weed control at 250 g/ha [12, 17] was 85%, the pest or weed control at 250 g/ha [13, 17] was 100% and the pest or weed control at 250 g/ha [14, 17] was 0%. For the same molecule, the pest or weed control at 250 g/ha [15, 17] was 0%.
